Assay results published in patent publication US8809377B2, “Deubiquitinase inhibitors and methods for use of the same” (The Regents of the University of Michigan, priority 2010, dated 2014).

System: cellular DUB activity
Experiment: DUB activity of lysates from treated cells (Ub-AMC, Ub chain disassembly)
Assay type: cell-based
Protocol: Cells were lysed in ice cold DUB buffer containing 50 mM Tris-HCl, pH 7.5, 0.5% NP-40, 5 mM MgCl2, 150 mM NaCl and 1 mM phenylmethylsulfonylfluoride. Briefly, 5 μg of clarified lysate from untreated or treated cells was incubated with 500 nM Ub-AMC in a 100 μL reaction volume at 37° C. and the release of AMC fluorescence was recorded at ex/em 380/480 using a spectrofluorometer. USP9x was immunoprecipitated from 500 μg of cell lysate and incubated in DUB buffer containing NEM, WP1130 or DMSO in a 100 μL reaction volume for 30 min. The reaction was initiated by the addition of 500 nM Ub-AMC and the release of AMC-fluorescence was recorded.
In vitro disassembly of purified polyubiquitin chains (K-48/K-63 linked) was performed as previously described. Five μg of lysate from untreated or WP1130 treated cells were prepared in DUB buffer and incubated with K48- or K-63 linked chains (1 μg) for 10 min at 37° C. The extent of chain disassembly was assessed by ubiquitin immunoblotting.
Inhibition of cellular deubiquitinases could lead to an increase in high molecular weight ubiquitinated proteins in the absence of proteasome inhibition. […] To directly assess the impact of WP1130 on DUB activity in treated cells, cell lysates from control and treated cells were incubated with ubiquitin-AMC and fluorescence generated as a consequence of substrate cleavage was measured as an indicator of DUB activity.
The effect of WP1130 treatment on in vitro deubiquitination/disassembly of purified K48-linked or K63-linked polyubiquitin chains was evaluated. Lysates from WP1130 treated (2 hr) or untreated cells were incubated with 1 μg of unanchored polyubiquitin chains for 5, 10 and 15 min at 37° C.

SMILES: CCC[C@H](NC(=O)/C(C#N)=C/c1cccc(Br)n1)c1ccccc1 [WP1130]
- Ub-AMC hydrolyzing activity of lysates from treated cells (CML cells, WP1130 1-8 hours): limited effects
- reduction of DUB activity (ubiquitin-AMC) (Z138 cells, 5 μM WP1130 or 50 nM bortezomib, by 4 hours): ~50%
- disassembly of K48-/K63-linked polyubiquitin chains by lysates (lysates from cells treated 2 hr): limited disassembly
